Data: ChEMBL document CHEMBL5303304, “EUbOPEN Chemogenomics Library - IncuCyte” (2023)

Columns and labels:
Assay type in all cases: toxicity, cell-based
Fibroblast = assay: Incucyte cell viability with human fibroblast; settings: 10 µM, compound concentration 10 uM
HEK-293T = assay: Incucyte cell viability with HEK293T; settings: human, 10 µM, compound concentration 10 uM
U2OS = assay: Incucyte cell viability with U2OS; settings: human, 10 µM, compound concentration 10 uM
Further: unitless GR value; below 1 slowed growth and below 0 cell loss.

SMILES	Growth Rate (Fibroblast; 0 h, replicate number 1)	Growth Rate (Fibroblast; 6 h, replicate number 1)	Growth Rate (Fibroblast; 12 h, replicate number 1)	Growth Rate (Fibroblast; 24 h, replicate number 1)	Growth Rate (HEK-293T; 6 h, replicate number 1)	Growth Rate (U2OS; 0 h, replicate number 2)	Growth Rate (U2OS; 6 h, replicate number 1)	Growth Rate (U2OS; 6 h, replicate number 2)	Growth Rate (U2OS; 12 h, replicate number 1)	Growth Rate (U2OS; 12 h, replicate number 2)	Growth Rate (U2OS; 18 h, replicate number 1)	Growth Rate (U2OS; 18 h, replicate number 2)	Growth Rate (U2OS; 24 h, replicate number 1)	Growth Rate (U2OS; 24 h, replicate number 2)	Growth Rate (Fibroblast; 6 h, replicate number 2)	Growth Rate (Fibroblast; 12 h, replicate number 2)	Growth Rate (Fibroblast; 18 h, replicate number 1)	Growth Rate (HEK-293T; 6 h, replicate number 2)	Growth Rate (U2OS; 0 h, replicate number 1)	Growth Rate (HEK-293T; 24 h, replicate number 2)	further results
Nc1ccc(S(=O)(=O)Nc2ccnn2-c2ccccc2)cc1 [SULFAPHENAZOLE]	-0.67	-0.25	-1	0.6	0.11	-0.29	0.27	0.05	0.83	1	0.83	0.88	0.86	0.91							Growth Rate (HEK-293T; 12 h, replicate number 1): 0.6; Growth Rate (HEK-293T; 18 h, replicate number 1): 0.44; Growth Rate (HEK-293T; 18 h, replicate number 2): 0.98; Growth Rate (HEK-293T; 24 h, replicate number 1): 0.45
CS(=O)(=O)NC(=O)CCC/C=C\C[C@H]1C(=O)C[C@@H](O)[C@@H]1/C=C/[C@@H](O)COc1ccccc1 [SULPROSTONE]	-1	0.27	0.85	0.79		0.8	0.89	0.91	0.97	0.91	0.83		0.87	0.94	0.85	0.39	0.95	0.91	0.72		Growth Rate (Fibroblast; 0 h, replicate number 2): -0.81; Growth Rate (Fibroblast; 18 h, replicate number 2): 0.47; Growth Rate (Fibroblast; 24 h, replicate number 2): 0.63; Growth Rate (HEK-293T; 0 h, replicate number 1): 0.99; Growth Rate (HEK-293T; 0 h, replicate number 2): 0.72; Growth Rate (HEK-293T; 12 h, replicate number 1): 0.92; Growth Rate (HEK-293T; 18 h, replicate number 1): 0.99
CC(C)c1ccc(CC(=O)N[C@H](C)c2ccc(OCC(F)(F)F)cn2)cc1 [SUVECALTAMIDE]	-0.55				0.16	0.67	-0.32	0.56	0.59	0.89	0.76	0.86	0.78	0.9	-1	0.94	0.11			0.8	Growth Rate (Fibroblast; 18 h, replicate number 2): 0.84; Growth Rate (Fibroblast; 24 h, replicate number 2): 0.74; Growth Rate (HEK-293T; 0 h, replicate number 2): 0.85; Growth Rate (HEK-293T; 12 h, replicate number 2): 0.87; Growth Rate (HEK-293T; 18 h, replicate number 2): 0.95
C=CC[C@@H]1/C=C(\C)C[C@H](C)C[C@H](OC)[C@H]2O[C@@](O)(C(=O)C(=O)N3CCCC[C@H]3C(=O)O[C@H](/C(C)=C/[C@@H]3CC[C@@H](O)[C@H](OC)C3)[C@H](C)[C@@H](O)CC1=O)[C@H](C)C[C@@H]2OC.O [TACROLIMUS]					-0.24	-1	0.95	0.5	0.75	0.7	0.81	0.87		0.85	-0.26	0.85	0.96	0.77	0.59	0.99	Growth Rate (Fibroblast; 0 h, replicate number 2): -0.85; Growth Rate (HEK-293T; 0 h, replicate number 2): -0.12; Growth Rate (HEK-293T; 12 h, replicate number 1): 0.41; Growth Rate (HEK-293T; 12 h, replicate number 2): 0.99; Growth Rate (HEK-293T; 18 h, replicate number 1): 0.78; Growth Rate (HEK-293T; 18 h, replicate number 2): 0.82; Growth Rate (HEK-293T; 24 h, replicate number 1): 0.87
COc1cc(N2CCC(N3CCN(C)CC3)CC2)ccc1Nc1ncc(Cl)c(Nc2ccccc2S(=O)(=O)C(C)C)n1 [TAE-684]		0.37	-0.98	-0.12	-0.99	-0.18	-0.18	0.84	-0.09	0.29	-0.06	0.27	-0.15	0.07	-0.99	-0.28	0.29	-0.4		0.17	Growth Rate (Fibroblast; 18 h, replicate number 2): -0.21; Growth Rate (Fibroblast; 24 h, replicate number 2): -0.32; Growth Rate (HEK-293T; 12 h, replicate number 1): -0.93; Growth Rate (HEK-293T; 12 h, replicate number 2): -0.16; Growth Rate (HEK-293T; 18 h, replicate number 1): -0.8; Growth Rate (HEK-293T; 18 h, replicate number 2): 0.06; Growth Rate (HEK-293T; 24 h, replicate number 1): -0.72
CCc1nc(-c2cccc(C)c2)c(-c2ccnc(NC(=O)c3ccccc3)c2)s1 [TAK-715]	-0.56				0.48	0.2	0.63			0.79	-0.35	0.87		0.92	0.83			0.96	-1	0.81	Growth Rate (HEK-293T; 24 h, replicate number 1): 0.92
CC/C(=C(\c1ccccc1)c1ccc(OCCN(C)C)cc1)c1ccccc1.O=C(O)CC(O)(CC(=O)O)C(=O)O [TAMOXIFEN CITRATE]		0.1	-0.13	-0.08	0.14	0.89	0.66	1	0.8	0.93	0.84	0.88	0.91	0.95	0.32	-0.01	-0.15	0.13	-0.22	0.52	Growth Rate (Fibroblast; 18 h, replicate number 2): -0.19; Growth Rate (Fibroblast; 24 h, replicate number 2): -0.21; Growth Rate (HEK-293T; 0 h, replicate number 2): -0.98; Growth Rate (HEK-293T; 12 h, replicate number 1): 0.4; Growth Rate (HEK-293T; 12 h, replicate number 2): 0.48; Growth Rate (HEK-293T; 18 h, replicate number 1): 0.48; Growth Rate (HEK-293T; 18 h, replicate number 2): 0.45; Growth Rate (HEK-293T; 24 h, replicate number 1): 0.56
Cn1nccc1Nc1nccc(-c2cc3c(s2)C(C)(C)N(CCN2CCOCC2)C3=O)n1 [TEMUTERKIB]	-0.63		-0.93	0.12		-0.42	0.47	0.51	0.66			0.82		0.9			0.27	0.33	-0.62	1	Growth Rate (Fibroblast; 0 h, replicate number 2): -0.1; Growth Rate (HEK-293T; 0 h, replicate number 1): 0.39; Growth Rate (HEK-293T; 12 h, replicate number 2): 0.76
Cn1cc(C(=O)O)c2ccc(N3CCC(OCc4c(-c5c(Cl)cccc5Cl)noc4C4CC4)CC3)cc21 [TERN-101]		-0.66	0.61	0.37	0.97		0.86	-0.83	0.74	0.96	0.87		0.91		0.73		0.62		-0.23		Growth Rate (Fibroblast; 0 h, replicate number 2): 0.89; Growth Rate (Fibroblast; 18 h, replicate number 2): 0.97; Growth Rate (Fibroblast; 24 h, replicate number 2): 0.87
CCO[C@@H](Cc1ccc(OCCc2ccc(OS(C)(=O)=O)cc2)cc1)C(=O)O [TESAGLITAZAR]	0.92	0.95		0.99	1	0.8		0.99			0.98		0.87		0.72	0.56	0.64	0.96		0.7	Growth Rate (Fibroblast; 0 h, replicate number 2): 0.24; Growth Rate (Fibroblast; 18 h, replicate number 2): 0.87; Growth Rate (HEK-293T; 0 h, replicate number 1): 0.24; Growth Rate (HEK-293T; 0 h, replicate number 2): -0.46; Growth Rate (HEK-293T; 12 h, replicate number 2): 0.68; Growth Rate (HEK-293T; 18 h, replicate number 2): 0.85
O=C(O)Cc1cc(I)c(Oc2ccc(O)c(I)c2)c(I)c1 [TIRATRICOL]	0.68	0.72		0.92			0.77		-0.73		0.97	0.96		0.9	0.26	0.55				0.69	Growth Rate (Fibroblast; 18 h, replicate number 2): 0.7; Growth Rate (Fibroblast; 24 h, replicate number 2): 0.76; Growth Rate (HEK-293T; 0 h, replicate number 1): 0.25; Growth Rate (HEK-293T; 0 h, replicate number 2): -0.35; Growth Rate (HEK-293T; 12 h, replicate number 2): 0.66; Growth Rate (HEK-293T; 18 h, replicate number 1): 0.92; Growth Rate (HEK-293T; 18 h, replicate number 2): 0.7; Growth Rate (HEK-293T; 24 h, replicate number 1): 1
Cc1cc(Nc2cc(N)ncn2)c(=O)n2c1C(=O)NC21CCCCC1 [TOMIVOSERTIB]		0.58	-1		0.32	0.6		0.49	0.96		0.93	0.92	0.88	0.85	-0.8				0.95		Growth Rate (Fibroblast; 0 h, replicate number 2): -1; Growth Rate (HEK-293T; 0 h, replicate number 2): 0.56
CC1CCN(c2ccnc(NCc3cn(C)cn3)n2)CC1 [TP-040]		0.15	0.71	0.65		0.69		0.76		0.8		0.86		0.84	0.66	0.76	0.71	0.85	-1		Growth Rate (Fibroblast; 0 h, replicate number 2): -0.66
